Source: patent publication US20080021012A1, “3-[4-{6-Substituted Alkanoyl Pyridin-3-Yl}-3-Phenyl]-5-(1H-1,2,3-Triazol-1-Ylmethyl)-1,3-Oxazolidin-2-Ones As Antibacterial Agents” (ASTRAZENECA AB, priority 2004, published 2008)
Values after ≈ are worked out from the molar mass of the structure shown. Structures can show the parent of a compound that is named as a salt.

Columns and labels:
physchem = settings: pH 7.4, aqueous buffer, thermodynamic from solid
Description: It will be understood that parameters such as solubility may be measured by any suitable technique known in the art.

[1] = test system: Staphylococcus aureus MSQS; test: MIC, agar-dilution, Staphylococcus aureus MSQS; format: cell-based; settings: Staphylococcus aureus MSQS (methicillin sensitive and quinolone sensitive), 10^4 CFU/spot, 37° C., 24 hours
Procedure: (§1) The following results were obtained on a standard in-vitro test system. The activity is described in terms of the minimum inhibitory concentration (MIC) determined by the agar-dilution technique with an inoculum size of 10^4 CFU/spot. Typically, compounds are active in the range 0.01 to 256 μg/ml.
(§2) Staphylococci were tested on agar, using an inoculum of 10^4 CFU/spot and an incubation temperature of 37° C. for 24 hours—standard test conditions for the expression of methicillin resistance.

[2] = test system: Staphylococcus aureus MRQR; test: MIC, agar-dilution, Staphylococcus aureus MRQR; format: cell-based; settings: Staphylococcus aureus MRQR (methicillin resistant and quinolone resistant), 10^4 CFU/spot, 37° C., 24 hours
Procedure: as §1, §2

Streptococcus pneumoniae = test: MIC, agar-dilution, Streptococcus pneumoniae; format: cell-based; settings: agar with 5% defibrinated horse blood, 37° C., 5% carbon dioxide, 48 hours
Procedure: as §1
(§3) Streptococci and enterococci were tested on agar supplemented with 5% defibrinated horse blood, an inoculum of 10^4 CFU/spot and an incubation temperature of 37° C. in an atmosphere of 5% carbon dioxide for 48 hours—blood is required for the growth of some of the test organisms. Fastidious Gram negative organisms were tested in Mueller-Hinton broth, supplemented with hemin and NAD, grown aerobically for 24 hours at 37° C., and with an innoculum of 5×10^4 CFU/well.

Haemophilus influenzae = test: MIC, Haemophilus influenzae; format: cell-based; settings: Mueller-Hinton broth with hemin and NAD, 24 hours, 37° C.
Procedure: as §1, §3

Moraxella catarrhalis = test: MIC, Moraxella catarrhalis; format: cell-based; settings: Mueller-Hinton broth with hemin and NAD, 24 hours, 37° C.
Procedure: as §1, §3

[3] = test system: Linezolid Resistant Streptococcus pneumoniae; test: MIC, Linezolid Resistant Streptococcus pneumoniae; format: cell-based
Procedure: as §1, §3

MAO-A = biological target: T1, MAO-A (Homo sapiens, UniProt P21397); test: MAO-A inhibition, standard in-vitro assay; format: biochemical; settings: human liver enzyme expressed in yeast
T1 construct: made in house; host or cells: yeast
T1 sequence (P21397 1-527): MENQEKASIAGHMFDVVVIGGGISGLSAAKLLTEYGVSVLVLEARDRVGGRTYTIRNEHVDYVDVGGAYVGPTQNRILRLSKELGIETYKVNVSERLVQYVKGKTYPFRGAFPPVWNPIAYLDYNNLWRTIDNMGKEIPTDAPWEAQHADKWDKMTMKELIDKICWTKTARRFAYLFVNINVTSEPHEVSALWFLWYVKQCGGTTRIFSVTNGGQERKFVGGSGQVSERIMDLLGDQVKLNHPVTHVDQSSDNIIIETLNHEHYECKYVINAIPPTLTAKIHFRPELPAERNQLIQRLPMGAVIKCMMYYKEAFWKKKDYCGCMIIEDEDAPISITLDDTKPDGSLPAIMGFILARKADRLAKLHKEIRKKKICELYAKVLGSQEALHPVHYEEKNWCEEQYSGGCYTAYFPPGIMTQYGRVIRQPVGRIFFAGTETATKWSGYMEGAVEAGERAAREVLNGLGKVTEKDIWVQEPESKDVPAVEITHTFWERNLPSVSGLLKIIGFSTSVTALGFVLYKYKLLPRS
Procedure: Inhibition of mono-amine oxidase (MAO) is a known potential side effect of oxazolidinone antibiotics (see for example WO 03/072575).
The activity of the compounds of the invention against MAO-A was tested using a standard in-vitro assay based on human liver enzyme expressed in yeast as described in Biochem. Biophys. Res. Commun. 1991, 181, 1084-1088. Compounds of the invention typically give Ki values of >5 μM when measured in such an assay as above.

In the case of O=C(Cn1ccnc1)c1ccc(-c2ccc(N3C[C@H](Cn4ccnn4)OC3=O)cc2F)cn1 (as salt: hydrochloride) [Example 1, (5R)-3-{3-Fluoro-4-[6-(1H-imidazol-1-ylacetyl)pyridin-3-yl]phenyl}-5-(1H-1,2,3-triazol-1-ylmethyl)-1,3-oxazolidin-2-one], the melting point is reported as > 230 °C (dec.).

For Cc1nccn1CC(=O)c1ccc(-c2ccc(N3C[C@H](Cn4ccnn4)OC3=O)cc2F)cn1 (as salt: hydrochloride) [Example 4], the melting point was > 240 °C (dec.).

For Cc1cn(CC(=O)c2ccc(-c3ccc(N4C[C@H](Cn5ccnn5)OC4=O)cc3F)cn2)cn1 (as salt: hydrochloride) [Example 5, (5R)-3-(3-Fluoro-4-{6-[(4-methyl-1H-imidazol-1-yl)acetyl]pyridin-3-yl}phenyl)-5-(1H-1,2,3-triazol-1-ylmethyl)-1,3oxazolidin-2-one], the melting point was > 217 °C (dec.).

For O=C(CC1CCNCC1)c1ccc(-c2ccc(N3C[C@H](Cn4ccnn4)OC3=O)cc2F)cn1 (as salt: hydrochloride) [Example 6, (5R)-3-{3-Fluoro-4-[6(piperidin-4-ylacetyl)pyridin-3-yl]phenyl}-5-(1H-1,2,3-triazol-1-ylmethyl)-1,3-oxazolidin-2-one], the melting point was > 196 °C (dec.).

In the case of O=C(c1ccc(-c2ccc(N3C[C@H](Cn4ccnn4)OC3=O)cc2F)cn1)C1CCNCC1 (as salt: hydrochloride) [Example 8, (5R)-3-{3-Fluoro-4-[6-(piperidin-4-ylcarbonyl)pyridin-3-yl]phenyl}-5-(1H-1,2,3-triazol-1-ylmethyl)-1,3-oxazolidin-2-one], the melting point is reported as > 275 °C (dec.).

With O=C(c1ccc(-c2ccc(N3C[C@H](Cn4ccnn4)OC3=O)cc2F)cn1)C1CNC1 (as salt: hydrochloride) [Example 9, (5R)-3-{4-[6-(Azetidin-3-ylcarbonyl)pyridin-3-yl]-3-fluorophenyl}-5-(1H-1,2,3-triazol-1-ylmethyl)-1,3-oxazolidin-2-one] the melting point was > 90 °C (dec.).

With O=C(Cn1ccnc1)c1ccc(-c2ccc(N3C[C@H](Cn4ccnn4)OC3=O)cc2F)cn1 [Example 1, (5R)-3-{3-Fluoro-4-[6-(1H-imidazol-1-ylacetyl)pyridin-3-yl]phenyl}-5-(1H-1,2,3-triazol-1-ylmethyl)-1,3-oxazolidin-2-one] the solubility (physchem) was 1450 µM (≈ 650 µg/mL), the MIC [1] was 0.25 µg/mL (≈ 0.559 µM) and the MIC [2] was 0.25 µg/mL (≈ 0.559 µM). The MIC (Streptococcus pneumoniae) was 0.13 µg/mL (≈ 0.291 µM), the MIC (Haemophilus influenzae) was 2 µg/mL (≈ 4.47 µM) and the MIC (Moraxella catarrhalis) was 0.5 µg/mL (≈ 1.12 µM). The MIC [3] was 0.5 µg/mL (≈ 1.12 µM) and the Ki (MAO-A) was > 5000 nM.

For O=C(CCCN1CCOCC1)c1ccc(-c2ccc(N3C[C@H](Cn4ccnn4)OC3=O)cc2F)cn1 [Example 2, (5R)-3-{3-Fluoro-4-[6-(4-morpholin-4-ylbutanoyl)pyridin-3-yl]phenyl}-5-(1H-1,2,3-triazol-1-ylmethyl)-1,3-oxazolidin-2-one], the Ki (MAO-A) was 15000 nM.

CC(C)(C)O/N=C/c1ccc(-c2ccc(N3C[C@H](Cn4ccnn4)OC3=O)cc2F)cn1 [Example 3] gave a Ki (MAO-A) of 6400 nM and a melting point of 192 °C.

Work on CCCc1nccn1CC(=O)c1ccc(-c2ccc(N3C[C@H](Cn4ccnn4)OC3=O)cc2F)cn1 [Example 11] yielded a melting point of 81 °C.

For CC(C)c1nccn1CC(=O)c1ccc(-c2ccc(N3C[C@H](Cn4ccnn4)OC3=O)cc2F)cn1 [Example 12], the melting point was 82 to 83 °C.

Cc1cn(CC(=O)c2ccc(-c3ccc(N4C[C@H](Cn5ccnn5)OC4=O)cc3F)cn2)c(C)n1 [Example 13, (5R)-3-(4-{6-[(2,4-Dimethyl-1H-imidazol-1-yl)acetyl]pyridin-3-yl}-3-fluorophenyl)-5-(1H-1,2,3-triazol-1-ylmethyl)-1,3-oxazolidin-2-one] gave a melting point of 78 °C.

CCc1nccn1CC(=O)c1ccc(-c2ccc(N3C[C@H](Cn4ccnn4)OC3=O)cc2F)cn1 [Example 14, (5R)-3-(4-{6-[(2-Ethyl-1H-imidazol-1-yl)acetyl]pyridin-3-yl}-3-fluorophenyl)-5-(1H-1,2,3-triazol-1-ylmethyl)-1,3-oxazolidin-2-one] gave a melting point of 77 to 79 °C.

Compound COCc1nccn1CC(=O)c1ccc(-c2ccc(N3C[C@H](Cn4ccnn4)OC3=O)cc2F)cn1 [Example 15, (5R)-3-[3-Fluoro-4-(6-{[2-(methoxymethyl)-1H-imidazol-1-yl]acetyl}pyridin-3-yl)phenyl]-5-(1H-1,2,3-triazol-1-ylmethyl)-1,3-oxazolidin-2-one] has a melting point of 78 to 80 °C.

For CC(=O)c1ccc(-c2ccc(N3C[C@H](Cn4ccnn4)OC3=O)cc2F)cn1 [Ref Example 1, (5R)-3-[4-(6-Acetylpyridin-3-yl)-3-fluorophenyl]-5-(1H-1,2,3-triazol-1-ylmethyl)-1,3-oxazolidin-2-one], the Ki (MAO-A) was 720 nM and the melting point was > 210 °C (dec.).

In the case of O=Cc1ccc(-c2ccc(N3C[C@H](Cn4ccnn4)OC3=O)cc2F)cn1 [Ref Example 2, 5-{2-Fluoro4-[(5R)-2-oxo-5-(1H-1,2,3-triazol-1-ylmethyl)-1,3-oxazolidin-3-yl]phenyl}pyridine-2-carbaldehyde], the Ki (MAO-A) is reported as 700 nM and the melting point is reported as > 180 °C (dec.).

With O=C1O[C@@H](Cn2ccnn2)CN1c1ccc(-c2ccc(/C=N/O)nc2)c(F)c1 [Ref Example 3, 5-{2-Fluoro-4-[(5R)-2-oxo-5-(1H-1,2,3-triazol-1-ylmethyl)-1,3-oxazolidin-3-yl]phenyl}pyridine-2-carbaldehyde oxime] the Ki (MAO-A) was < 300 nM and the melting point was > 230 °C (dec.).

With CC(=O)NC[C@H]1CN(c2ccc(-c3ccc(-c4nnn(C)n4)nc3)c(F)c2)C(=O)O1 [Reference Example 4] the solubility thermodynamic (physchem) was 35.1 µM (≈ 14.4 µg/mL).

For Cn1nnc(-c2ccc(-c3ccc(N4C[C@H](Cn5ccnn5)OC4=O)cc3F)cn2)n1 [Reference Example 5, (5R)-3-(3-Fluoro-4-(6-(2-methyl-2H-tetrazol-5-yl)pyrid-3-yl)phenyl)-5-(1H-1,2,3-triazol-1-ylmethyl)-1,3-oxazolidin-2-one], the solubility thermodynamic (physchem) was < 7.1 µM.
